The values that follow are results of earlier work, collected in patent US12150952B2, “Formulation for the use in the simultaneous treatment of coccidial infections and iron deficiencies” (Elanco Animal Health GmbH, priority 2018, dated 2024).

Like-named read-outs stand apart in the source and are kept apart here.

In data set [1] the test system is Isospora suis. Conditions: coccidiosis.
For data set [2] the following is noted: value to be understood as stated ±1.

`O=C1OCCN1/N=C/c1ccc([N+](=O)[O-])o1` [furazolidon]: the “preventing the disease in experimentally infected piglets” value (shortened to “preventing the disease”) in data set [1] is “not been successful in preventing the disease”.

For the molecule `CCCCC(CC)COC(=O)CC(C(=O)OCC(CC)CCCC)S(=O)(=O)[O-].[Na+]` (stereo not drawn) [Sodium docusate], the HLB result in data set [2] is reported as “about 10”; in data set [2] (listed as Sodium Docusate) it was 10.

On to `CC[C@@]1([C@@H]2O[C@@H]([C@H]3O[C@@](O)(CO)[C@H](C)C[C@@H]3C)C[C@@H]2C)CC[C@H]([C@]2(C)CC[C@]3(C[C@H](O)[C@@H](C)[C@@H]([C@@H](C)[C@@H](OC)[C@H](C)C(=O)O)O3)O2)O1` [monensin], for which the “preventing the disease” value in data set [1] is given as “not been successful in preventing the disease”.

In the case of Sorbitan Monooleate, the HLB entry in data set [2] is “about 4.6”.

With `CCCc1ncc(C[n+]2ccccc2C)c(N)n1` [amprolium], the “preventing the disease” value in data set [1] is on record as “not been successful in preventing the disease”.
